The results in this text go back to publication PMC9256669, “Monomethyl auristatin antibody and peptide drug conjugates for trimodal cancer chemo-radio-immunotherapy” (Nature Communications, 2022).

One experiment concerns HCT116. The experiment is described as follows: Cytotoxicity, Alamar Blue assay. In kind it is cell-based, human. As to conditions: 72 h drug exposure, one value per biological replicate. The method, then: (§1) Cells were plated in 96-well plates and exposed to a drug concentration range for 72 h. Alamar Blue was added to the cells and allowed to incubate for 2–4 h at 37 °C. Plates were analyzed using a plate reader with fluorescence measured at 560 nm. Fractional survival was normalized to untreated control cell fluorescent values. Drug IC50 was calculated using Prism software (GraphPad, La Jolla, CA). Cell viability, cytotoxicity and apoptosis were also measured by ApoTox-Glo Triplex Assay (Promega).
In general terms: Resazurin is reduced to fluorescent resorufin, in cell work by metabolically active cells.

The next experiment has as its system A549. Description: Cytotoxicity, Alamar Blue assay. As to conditions: 72 h drug exposure, one value per biological replicate. In kind it is cell-based, human. Here is the method:
as §1

In a further experiment the test system is LL/2 cells. Description: Cell cycle analysis. In kind it is cell-based, murine. The method, then:
Cells were MMAE treated for 24 h, fixed in 70% ethanol, stained with FxCyclePI/RNase solution (Life Technologies), and then analyzed by FACS using FlowJo software. […]
0.9 b) Cell cycle analysis […]
Source data are provided in Source Data file.

In the next experiment the test system is B16 cells. The experiment is described as follows: Clonogenic survival with MMAE and 2 Gy (SF2). The experiment is classed as cell-based, murine. The arrangement: key to SF2: fraction surviving 2 Gy relative to non-irradiated cells. As to conditions: for SF2: Figure 3d, six single replicates. Here is the method: Cells were treated with MMAE for 24 h and then irradiated with 2 Gy. […] Following IR, cells were counted, re-plated at varying cell numbers in drug free media. 10–14 days after initial seeding formed colonies were methanol fixed, stained with crystal violet, and counted. Surviving fraction at 2 Gy (SF2) was calculated as the fraction of cells surviving 2 Gy compared to non-irradiated cells.

Another experiment has as its system Detroit 562. The experiment is described as follows: Cytotoxicity, Alamar Blue assay. In kind it is cell-based, human. As to conditions: Detroit 562, 72 h drug exposure, one value per biological replicate, read-out: IC50 values. The method, then: (§2) Murine colorectal (MC38 (ENH204-FP)) cancer cell lines were obtained from Kerafast. Murine head and neck MOC1 and MOC2 were generously provided by Dr. R. Uppaluri. CAL27 PIK3CA H1047R expressing cells and 4MOSC1 cells were generated in Dr. Gutkind’s laboratory and previously characterized[42],[55]. […] MC38 cells were cultured in DMEM supplemented with 10% FBS, 1 mM sodium pyruvate (Gibco), 1% non-essential amino acids (Gibco), and 10 mM HEPES (Gibco). MOC1 and MOC2 cells were cultured in IMDM (Lonza)/F-12K nutrient mixture at a 2:1 mixture with 5% FBS, 5 ng/ml EGF (EMD Millipore), 400 ng/ml hydrocortisone (Sigma), and […] insulin (Sigma). On receipt, each cell line was expanded, cryopreserved as low passage stocks, and routinely tested for mycoplasma. Cisplatin (Enzo Biosciences), paclitaxel (Sigma), and MMAE (Concortis) were reconstituted in DMSO. Clinical-grade CDX3379 was provided by Celldex. Clinical grade cetuximab (Erbitux, Lilly Medical) was obtained from UCSD Moores Cancer Center Pharmacy.
as §1

For a further experiment, the system named is CAL27. The experiment is described as follows: Cytotoxicity, Alamar Blue assay. As to conditions: 72 h drug exposure, one value per biological replicate, read-out: IC50 values. In kind it is cell-based, human. Here is the method: as §2, §1
Experiment [1] concerns B16 tumors. Description: Subcutaneous tumor therapy, CDX3379-MMAE or CDX3379-MMAF with IR, mouse survival. The experiment is classed as in vivo, C57BL/6 mice.
Procedure: MOC1, B16, LL/2, and MC38 tumor cells were injected subcutaneously into the hindlimbs of 6-week-old female C57BL/6 albino mice in 100 µl of 1:1 Matrigel (BD) and PBS solution. Fractionated IR was delivered focally to the tumor-bearing hindlimbs (3 Gy to MC38 tumors and 5 Gy to LL/2 and B16 tumors) as indicated in figure legends using a PXI X-RAD 225 XL irradiator at maximal dose rate of 3 Gy/min with a beam-conditioning aluminum filter (Precision X-ray Irradiation). For RAG1 KO studies, 6-week-old female Rag1^tm1Mom mice were injected subcutaneously with tumor cells in their hindlimbs (Jackson Labs). For CD8 depletion studies, mice were i.p. injected with anti-CD8 (BioXCell #BE0117) at 10 mg/kg on days −6, −5 and −4 tumor cell implant and then weekly starting on day after tumor cells were injected or control antibody. […] Tumor volumes were measured and calculated using the formula as ½ * length * width^2. Mice were sacrificed when tumor volume reached >1500 mm^3, maximal tumor volume approved on our protocol for subcutaneous tumors.
For the next experiment, the system named is 4MOSC1 tumors. The experiment is described as follows: Orthotopic syngeneic tumor ACPP therapy, tumor volumes. In kind it is in vivo, C57BL/6 mice. As to conditions: orthotopic 4MOSC1 tumors, conjugate monotherapy. The source says:
Orthotopic tongue xenograft tumors were established in 6-week-old NOD SCID mice by injecting 150,000 CAL27 parental (WT) or PIK3CA H1047R-expressing cells. […] On the last day of tumor xenograft measurements, mice were euthanized, tongues resected, imaged, and fixed. […] IR was delivered as 2 parallel opposed fields.

The subject of experiment [2] is B16 tumors. The arrangement: species or system C57BL/6 mice. As to conditions: mouse, in vivo. The method, then: At harvest, tumors were isolated, minced, and re-suspended in FBS-free DMEM media supplemented with components of MACs tumor dissociation kit. Tissues were incubated for 15 min at 37 °C and mechanically digested using the gentle MACs Octo dissociator. Tissue suspensions were washed with fresh media and passed through a 100-µm strainer. Samples were split in half for immediate staining or stimulated with the Biolegend Cell Activation Cocktail (with Brefeldin A) for 3 h. Samples were washed with PBS and immediately processed for live/dead cell discrimination using BD LIVE/DEAD™ Fixable Blue Dead Cell Stain Kit. Cells were washed and stained for surface markers for 30 min at 4 °C. Intracellular staining was performed using the eBioscience FOXP3/Transcription Factor Buffer Set from Invitrogen and stained with intracellular antibodies. […] All antibodies were validated by the supplier. All flow cytometry data acquisition was done using BD LSRFortessa and analyzed using FlowJo software. […]
Representative flow cytometry plots to gate immune cells quantitated in Fig. 4a, b, 4d &
Supplementary Fig. 10b, c. b) Quantification of tumor immune cell identified by flow cytometry on […]
(Clone:GB11). In addition, RNA levelsof tumor granzyme-B was analyzed by qPCR. […]

Values joined by “and” are separate entries in the source; they are usually repeats but may differ in a detail not shown here. Identical values can stand only once. “Also recorded” adds a separate entry of the source. Non-standard residues stand in square brackets, D forms with d. Residues, ends and D or L forms follow the SMILES beside them. *: point of attachment. Dolaproine = CO[C@@H]([C@@H]1CCCN1)[C@@H](C)C(=O)O; Dil = CC[C@H](C)[C@H](NC)[C@@H](CC(=O)O)OC; X1 = C[C@@H](N*)[C@@H](O)c1ccccc1; NMeV = CN[C@H](C(=O)O)C(C)C

With `CC[C@H](C)[C@@H]([C@@H](CC(=O)N1CCC[C@H]1[C@H](OC)[C@@H](C)C(=O)N[C@H](C)[C@@H](O)c1ccccc1)OC)N(C)C(=O)[C@@H](NC(=O)[C@@H](NC)C(C)C)C(C)C` [MMAE, monomethyl auristatin E] (H-[NMeV]V[Dil][Dolaproine]-X1), the IC50 (usually the concentration needed to halve the response being measured) in the experiment on HCT116 was 0.343 nM and 0.431 nM and 0.548 nM and 1.43 nM and 1.52 nM and 1.35 nM; with A549, 0.559 nM and 0.513 nM; with Detroit 562, 0.253 nM and 0.25 nM and 0.189 nM and 0.195 nM; in the experiment with CAL27, 0.235 nM and 0.239 nM (2×) and 0.237 nM and 0.177 nM and 0.185 nM. Also, the G2/M fraction in the experiment on LL/2 cells (MMAE 1 nM, replicate 1) stood at 0.15; in the experiment on LL/2 cells (MMAE 1 nM, replicate 2), 0.12; in the experiment on LL/2 cells (MMAE 2 nM, replicate 1), 0.13; in the experiment on LL/2 cells (MMAE 2 nM, replicate 2) it was 0.14; with LL/2 cells (MMAE 5 nM, replicate 1) it was 0.21; in the experiment on LL/2 cells (MMAE 5 nM, replicate 2), 0.23. The G2/M fraction is 0.63 in the experiment on LL/2 cells (MMAE 10 nM, replicate 1) and 0.53 in the experiment with LL/2 cells (MMAE 10 nM, replicate 2). The SF2 in the experiment with B16 cells (MMAE 1 nM with 2 Gy) is 0.93 and 0.7 and 0.72 and 0.83 and 0.98; in the experiment on B16 cells (MMAE 2 nM with 2 Gy) it was 0.57 and 0.61 and 0.48 and 0.63 and 0.74; with B16 cells (MMAE 3 nM with 2 Gy), 0.68 and 0.71 and 0.65 and 0.5 and 0.56. Moreover, the “radiosensitization, clonogenic cell death” value with B16 cells (murine tumor cells, single nanomolar doses of MMAE, 2 Gy) is given as “sensitized murine tumor cells to IR-mediated clonogenic cell death”.

For “CDX3379-MMAE: anti-HER3 antibody CDX3379 with 4 MMAE per antibody via MC-VC-PABC linker, labeled with Cy5”, the “tumor control and survival, + IR” value in the experiment with B16 tumors [1] (B16, 2.5 nmoles ADC x 2 doses + IR 5 Gy x 3) is “prolonged tumor control and survival; also recorded: superior to CDX3379-MMAF”. Besides, the “Mouse survival, status” value in the experiment with B16 tumors [1] (with IR, individual mice, status at the day, Figure 3h) was 1 and 0.

Regarding “cyclo(RGD)fc-MC-HN-peg8-e9-oPLGC(Me)AG-r9-c-(MC-VC-PABC-MMAE)-CONH2 [ACPP-MMAE]”, the tumor growth entry with 4MOSC1 tumors was “modest tumor growth delay”. Also, in the experiment with B16 tumors [2], the “CD8 T cell granzyme B” value was “increased CD8 T cell granzyme B at both the transcriptional and protein levels”; the “Immune checkpoint markers: GZMB, RNA” value was 3.95 and 3.63.
